Experimental data from paper PMC9995496, “A screen for MeCP2-TBL1 interaction inhibitors using a luminescence-based assay” (Scientific Reports, 2023).
Where a name gives a salt, the structure may show the parent alone.

System: PRKACA-PRKAR2A interaction (SmBiT-PRKACA / LgBiT-PRKAR2A), protein kinase A
Parameters: NanoLuc complementation counter-screen in cell extract, PRKACA with PRKAR2A, loss of luminescence, detects NanoLuc interference
Details: counter-screen for NanoLuc interference; 0.5 h, 20 µM; inhibitor

| Inh (PKA) | SMILES |
| --- | --- |
| 1.222% | CC(C)N(CCCNC(=O)Nc1ccc(C(C)(C)C)cc1)C[C@H]1O[C@@H](n2ccc3c(N)ncnc32)[C@H](O)[C@@H]1O [UM0141745:01, EPZ004777] |
| 11.88% | Cc1cc(C)c(CNC(=O)c2cc(-c3ccc(CN4CCOCC4)cc3)cc3c2cnn3C2CCCC2)c(=O)[nH]1 [UM0141746:01, EPZ005687] |
| 11.59% | CC(NC(=O)c1ccccc1/N=C/c1c(O)ccc2ccccc12)c1ccccc1 (stereo not drawn) [UM0141749:01, Sirtinol] |
| 3.719% | COc1ccccc1S(=O)(=O)Nc1ccc2c(c1)CN(C)C(=O)N2 [UM0141750:01, PFI-1 (PF-6405761)] |
| 9.511% | Cc1nc(C(=O)NCC(=O)O)c(O)c2ccc(Oc3ccccc3)cc12 [UM0141752:01, FG-4592 (ASP1517)] |
| 11.33% | CCOC(=O)CCNc1cc(N2CCc3ccccc3CC2)nc(-c2ccccn2)n1 [UM0141754:01, GSK J4 HCl] |
| 1.8% | O=C(O)CCNc1cc(N2CCc3ccccc3CC2)nc(-c2ccccn2)n1 [UM0141755:01, GSK J1] |
| 32.18% | CN1CCC(CNc2ccc3ncc(-c4cccc(OC(F)(F)F)c4)n3n2)CC1 [UM0141756:01, SGI-1776 free base] |
| 43.77% | COC1=CC(c2cc3ccccc3[nH]2)=N/C1=C\c1[nH]c(C)cc1C [UM0141758:01, Obatoclax mesylate (GX15-070)] |
| 12.84% | Cc1cc2c(C(=O)NC[C@H](C)c3ccccc3)c(O)c(O)cc2c(O)c1-c1c(C)cc2c(C(=O)NC[C@H](C)c3ccccc3)c(O)c(O)cc2c1O [UM0141759:01, Sabutoclax] |
| 2.798% | Nc1cccc2c1C(=O)N(C1CCC(=O)NC1=O)C2=O (stereo not drawn) [UM0141764:01, Pomalidomide (CC-4047)] |
| 0.9715% | COCC[n+]1c2c(n(Cc3cnccn3)c1C)C(=O)c1ccccc1C2=O [UM0141767:01, YM155] |
| 1.968% | COc1ccc(C2=N[C@@H](c3ccc(Cl)cc3)[C@@H](c3ccc(Cl)cc3)N2C(=O)N2CCNC(=O)C2)c(OC(C)C)c1 [UM0141768:01, Nutlin-3] |
| 2.732% | CC(C)c1ccccc1Cc1cc(C(=O)Nc2ccc(S(=O)(=O)c3ccccc3C(C)(C)C)cc2)c(O)c(O)c1O [UM0141770:01, TW-37] |
| 7.726% | S=C(NCc1ccc2c(c1)OCO2)N1CCN(c2ncnc3c2oc2ccccc23)CC1 [UM0141771:01, Amuvatinib (MP-470, HPK 56)] |
| 6.091% | O=C(Nc1ccncc1)c1cc([N+](=O)[O-])ccc1Cl [UM0141773:01, T0070907] |

Continued, compound first:

| SMILES | Inh (PKA) |
| --- | --- |
| CCN(CC)C(=O)/C(C#N)=C/c1cc(O)c(O)c([N+](=O)[O-])c1 [UM0141744:01, Entacapone] | 34.9% |
| Nc1nc2[nH]cnc2c(=S)[nH]1 [UM0141747:01, Thioguanine] | 3.135% |
| CCOC(=O)Nc1cc(-c2ccc(C)c(NS(C)(=O)=O)c2)nn2c(C)nnc12 [UM0141751:01, Bromosporine] | 9.043% |
| O=C(O)CNC(=O)c1c(O)c2ccccc2n(Cc2ccccc2)c1=O [UM0141753:01, IOX2(Glycine)] | 18.92% |
| O=C1NC(=O)/C(=C/c2cccc(C(F)(F)F)c2)S1 [UM0141757:01, SMI-4a] | 63.38% |
| OCc1ccc(-c2ccc(-c3ccc(CO)s3)o2)s1 [UM0141761:01, RITA (NSC 652287)] | 10.18% |
| C/C(=N\NC(=S)N1CCC1)c1ccccn1 [UM0141763:01, NSC 319726] | 3.72% |
| CN1C(=O)C(Cc2c[nH]c3ccccc23)NC1=S (stereo not drawn) [UM0141765:01, Necrostatin-1] | 5.445% |
| O=C1CCC(N2C(=O)c3ccccc3C2=O)C(=O)N1 (stereo not drawn) [UM0141766:01, Thalidomide] | -0.2984% |
| C[C@]12CC[C@H](O)CC1=CC[C@@H]1[C@@H]2CC[C@]2(C)C(c3cccnc3)=CC[C@@H]12 [UM0141772:01, Abiraterone] | 5.429% |
| Cc1cccc(Nc2cc(Cl)nc(SCC(=O)O)n2)c1C [UM0141774:01, WY-14643 (Pirinixic Acid)] | 22.49% |
